Reference: US20160136071A1, “Topical bimatoprost for promoting hair growth containing formulations” (priority 2013, published 2016)

What was measured:
[1] = test system: lashes and adjacent hairs; assay: Daily-practice observation of lashes in glaucoma patients treated with bimatoprost in one eye; type: in vivo, human
Text: In the course of treating patients having glaucoma, treatment may only be appropriate in one eye. […] The lash appearance on the lids of the treated eye would have appeared quite attractive if it represented a bilateral phenomenon. Because of its asymmetric nature, the long lashes on one side could be construed as disturbing from a cosmetic standpoint. Because of the very unusual appearance a systematic examination of other patients who were taking bimatoprost in only one eye was made. It soon became apparent that this altered appearance was not an isolated finding. […] Definite differences could be identified to varying degrees in the lashes and adjacent hairs of all patients who were taking the drug on a unilateral basis for longer than 6 months. These findings were totally unexpected and surprising.
The changes in the lashes after topical application of bimatoprost were apparent on gross inspection in several patients once attention was focused on the issue. In those with light colored hair and lashes, the differences were only seen easily with the aid of the high magnification and lighting capabilities of the slit lamp biomicroscope. In the course of a glaucoma follow up examination, attention is generally immediately focused on the eye itself. […]

[2] = powder, cited from earlier work
[3] = test system: lashes and hair around the eyes; assay: Study of lashes and hair around the eyes of glaucoma patients administering bimatoprost in only one eye (slit lamp biomicroscope); type: in vivo, human; settings: one drop daily of 0.03% ophthalmic solution to one eye
Protocol: A study is initiated to systematically evaluate the appearance of lashes and hair around the eyes of patients who are administering bimatoprost in only one eye. The study involves 10 subjects, 5 male, 5 female, average age 70 years, (ranging from 50-94 years). All patients have glaucoma. Each subject is treated daily by the topical application of one drop of bimatoprost at a dosage of 1.5 µg/ml/eye/day (0.03%, by weight, ophthalmic solution, sold under the names Lumigan® and Latisse® by Allergan, Irvine, Calif., U.S.A.) to the region of one eye by instilling the drop onto the surface of the eye. The region of the fellow control eye is not treated with bimatoprost and served as a control.
In the course of treatment with eye drops, there is typically spontaneous tearing, and excess fluid from the drops and associated tears gathers at the lid margins. In the course of wiping the drug containing fluid from the lid margins and adjacent lid, a thin film of the fluid is routinely spread to contact the adjacent skin of the lid area.
The study is limited to subjects who have administered bimatoprost to one eye for more than 3 months. The mean duration of exposure to bimatoprost prior to assessing the parameter of lash growth between the control and study eye is 129 days (range 90-254 days). Observations are made under high magnification at the slit lamp biomicroscope. Documentation of differences between the control and treatment areas is accomplished using a camera specially adapted for use with the slit lamp biomicroscope. The results of the observations are as follows: Length of lashes: Increased length of eyelashes is regularly observed on the side treated with bimatoprost. The difference in length varies from approximately 10% to as much as 30%. […] In areas where there are a large number of lashes in the control eye, the increased number of lashes in the bimatoprost-treated eye gave the lashes on the treated side a more thickly matted overall appearance. […] These long, thick lash-like hairs were present in the central portion of the lids of several patients in a linear arrangement just above the lash line. Hairs are present at similar locations in the control eyes but are by contrast thinner or more fine in appearance, have less luster and pigment and are more flat against the skin of the lid typical of vellus or intermediate hairs. In several patients, lash-like terminal hairs grow luxuriantly in the medial canthal area in the treated eye. In the corresponding control eye, vellus hairs are seen at the same location. Lash-like hairs are also present in the lateral canthal area of the treated eye but not the control eye in several subjects. […]

CCNC(=O)CCC/C=C\C[C@@H]1[C@@H](/C=C/[C@@H](O)CCc2ccccc2)[C@H](O)C[C@@H]1O [Bimatoprost, (Z)-7-[(1R,2R,3R,5S)-3,5Dihydroxy-2-[(1E,3S)-3-hydroxy-5-phenyl-1-pentenyl]cyclopentyl]-5-N-ethylheptenamide]
Lash appearance in treated eye vs non-treated eye ([1]; glaucoma patient treated in one eye): longer, thicker and fuller in the treated eye than in the non-treated eye
Hypertrichosis in the region of treatment ([1]; patients treated in or around the eye): regularly develop hypertrichosis
solubility in ethyl alcohol ([2]; ethyl alcohol): very soluble
solubility in methyl alcohol ([2]; methyl alcohol): very soluble
solubility in water ([2]; water): slightly soluble
Growth of vellus hair on lids, treated vs control eye ([3]; areas below and lateral to the lower lid): increased in number, appear more robust and are much longer and thicker
Perpendicular angulation of hairs, treated vs control eye ([3]; lash-like hairs above lash line and in canthal areas): leave the surface of the skin at a more acute angle
Number of lashes, treated vs control eye ([3]; mean exposure 129 days, fellow eye untreated): Increased numbers of lashes
Auxiliary lash-like hair growth, treated vs control eye ([3]; several patients): apparent increase in lash-like hair in transitional areas
